Here are results for 2 compounds from US20260284082A1, “TARGETING THE PANX1-P2Y2R-TRPV4 PATHWAY TO TREAT LUNG ISCHEMIA-REPERFUSION INJURY” (UNIVERSITY OF VIRGINIA PATENT FOUNDATION, priority 2023, published 2026).

Test [1] concerns murine pulmonary microvascular endothelial cells. As to conditions: murine PMVECs, acute hypoxia-reoxygenation; cited from earlier work.
Test [2] concerns pulmonary endothelium of small PAs. Description: Endothelial Ca2+ signals in small PAs exposed ex vivo to acute hypoxia-reoxygenation (HR). The class given is cell-based. As to conditions: GSK219 100 nM; small PAs from TRPV4fl/fl mice, 1 h hypoxia + 10 min reoxygenation. How it is done: Ca^2+ imaging in Pas: Ca^2+ imaging in small Pas was performed as previously described.8 Fourth-order, small (~50 μm diameter) Pas (see FIG. 1B) were dissected from left lungs in cold HEPES-buffered physiological salt solution (HEPES-PSS; 10 mM HEPES, 134 mM NaCl, 6 mM KCl, 1 mM MgCl2 hexahydrate, 2 mM CaCl2) dihydrate, and 7 mM dextrose; pH adjusted to 7.4 using 1 M NaOH). Ca^2+ imaging studies were performed in en face preparations of small Pas incubated with Fluo-4 AM (10 μM) and pluronic acid (0.04%) at 37° C. for 10 minutes. For studies after sham or lung IR surgery, small Pas were immediately dissected out after the indicated reperfusion time and incubated en face with Fluo-4 AM. […] Fluo-4 was excited using a 488-nm solid-state laser, and emitted fluorescence was captured using a 525/36-nm band-pass filter. […] Baseline Ca^2+ signaling activity was recorded in the absence of CPA.
Analysis of baseline Ca^2+ signaling activity and TRPV4 sparklet activity in the pulmonary endothelium: Ca^2+ images acquired using the procedure described above were analyzed with custom-designed SparkAn software (source code available at https://github.com/vesselman/SparkAn).^10 Fractional fluorescence (F/F0) traces were obtained by placing a 1.7 μm2 (5×5 pixels) region of interest (ROI) at the peak event amplitude. […] Overall baseline Ca^2+ signals were automatically detected using a threshold of 1.25 F/F0. […]

For a further test, the system named is mouse model of lung IRI. Description: Murine lung IR model (left-lung hilar ligation), pre-treatment with P2Y2R inhibitor. The class given is in vivo, mice. Particulars: AR-C 5 mg/kg via jugular vein 1 hr prior to hilar ligation; 1 h ischemia + 2 h reperfusion. How it is done:
Murine lung IR model. A left-lung hilar-ligation model of IRI in mice involving 1 hour of ligation (ischemia) followed by 2 hours of reperfusion.^9,20 Partial pressure of oxygen, lung compliance, lung edema, neutrophil infiltration, and cytokine levels in bronchoalveolar lavage fluid were assessed. Exposure of small pulmonary arteries and pulmonary microvascular endothelial cells to acute hypoxia-reoxygenation were used as ex vivo and in vitro surrogate models of IR, respectively.
Murine lung IR model: A well-established left lung IRI model involving temporary in vivo ligation of the left hilum (pulmonary artery, vein, and airway) was used.^6 Briefly, mice were anesthetized with inhaled isoflurane, intubated, ventilated with room air at 150 strokes/min with a tidal volume of […] (Harvard Apparatus Co, South Natick, MA), and heparinized (20 U/kg: Hospira Inc, Lake Forest, IL). […] Animals were again extubated, recovered in their cage, and monitored during the 2-hour reperfusion period. […]
Partial pressure of arterial oxygen (PaO2): After reperfusion, animals were anesthetized, intubated, and ventilated with 100% oxygen. […] Left lung-specific PaO2 was immediately measured using an i-STAT handheld blood analyzer and CG4+ cartridge (Abbott Point of Care, Princeton, NJ).
Lung wet-to-dry weight ratio: Lung wet-to-dry weight ratio was measured as an indicator of pulmonary edema. […]

Regarding `O=C(NC1(c2ccccc2)CC1)c1c(CN2CCC(N3CCCCC3)CC2)c(-c2cccc(C(F)(F)F)c2)nc2cc(Br)ccc12` [GSK219, GSK2193874], the “HR-induced secretion of CXCL1/KC” value in test [1] is given as “attenuated”. Moreover, in test [2], the “HR-induced increase in endothelial Ca2+ signals” value is “completely abolished”.
Take `Cc1ccc2c(c1)C=Cc1cc(C)ccc1C2c1cn(Cc2ccc(C(=O)Nc3nn[nH]n3)o2)c(=O)[nH]c1=S` [ARC, AR-C 118925XX]: in the test with mouse model of lung IRI, the “partial pressure of oxygen (PaO2) after IR (lung function)” value is reported as “improved” and the “pulmonary edema (lung wet-to-dry weight ratio) after IR” value was “not in mice pre-treated with P2Y2R inhibitor AR-C”.
